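Five concentrations, 48 hours, 96-well plates. Abbreviation: GI50, concentration required for 50% inhibition of growth.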 Calls of active or inactive are those of the source. Cut-off read from the data, not from the text of the source: active = GI50 up to about 1.1 µM and inactive = higher. Where a SMILES comes first, the peptide text is derived from it. The star is where a group is joined. X33 = O=C(c1ccc(-c2ccc(Cl)cc2Cl)o1)*
What was measured:
Assay in all cases: DTP human tumour cell line panel, 48 h
CAKI-1 = tested on: CAKI-1
HCC 2998 = tested on: HCC 2998
786-0 = tested on: 786-0
OVCAR-8 = tested on: OVCAR-8
PC-3 = tested on: PC-3
U-251 = tested on: U-251
OVCAR-4 = tested on: OVCAR-4
NCI-H522 = tested on: NCI-H522
SK-MEL-2 = tested on: SK-MEL-2
DU-145 = tested on: DU-145
EKVX = tested on: EKVX
HCT-15 = tested on: HCT-15
K562 = tested on: K562
NCI/ADR-RES = tested on: NCI/ADR-RES
A498 = tested on: A498
SK-OV-3 = tested on: SK-OV-3
RPMI-8226 = tested on: RPMI-8226
LOX IMVI = tested on: LOX IMVI
TK-10 = tested on: TK-10
UO-31 = tested on: UO-31

**Q.** CN(C)CCCN1c2ccccc2CCc2ccc([N+](=O)[O-])cc21 was tested. Which GI50 (CAKI-1) did it give?
**A.** The GI50 was 40.6 µM (inactive).

**Q.** And the GI50 (HCC 2998)?
**A.** The GI50 was 13.9 µM (inactive).

**Q.** What about the GI50 (786-0) of the same compound?
**A.** The GI50 was 33 µM (inactive).

**Q.** And the GI50 (OVCAR-8)?
**A.** The GI50 was 29.6 µM (inactive).

**Q.** And the GI50 (PC-3)?
**A.** Its GI50 is 34.8 µM (inactive).

**Q.** And the GI50 (U-251)?
**A.** The GI50 was 29.3 µM (inactive).

**Q.** What about the GI50 (OVCAR-4) of the same compound?
**A.** The GI50 was 35.5 µM (inactive).

**Q.** What about the GI50 (NCI-H522) of the same compound?
**A.** Its GI50 is 17.5 µM (inactive).

**Q.** And the GI50 (SK-MEL-2)?
**A.** The GI50 was 20.3 µM (inactive).

**Q.** What about the GI50 (DU-145) of the same compound?
**A.** The GI50 was 18.4 µM (inactive).

**Q.** What about the GI50 (EKVX) of the same compound?
**A.** The GI50 was 69.3 µM (inactive).

**Q.** And the GI50 (HCT-15)?
**A.** Its GI50 is 26.9 µM.

**Q.** What about the GI50 (K562) of the same compound?
**A.** Its GI50 is 30.3 µM (inactive).

**Q.** What about the GI50 (NCI/ADR-RES) of the same compound?
**A.** The GI50 was 19.1 µM (inactive).

**Q.** And the GI50 (A498)?
**A.** The GI50 was 17.7 µM (inactive).

**Q.** And the GI50 (SK-OV-3)?
**A.** Its GI50 is 37.2 µM (inactive).

**Q.** What about the GI50 (RPMI-8226) of the same compound?
**A.** The GI50 was 34.5 µM (inactive).

**Q.** What about the GI50 (LOX IMVI) of the same compound?
**A.** Its GI50 is 16.1 µM (inactive).

**Q.** What about the GI50 (TK-10) of the same compound?
**A.** The GI50 was 18.7 µM (inactive).

**Q.** What about the GI50 (UO-31) of the same compound?
**A.** The GI50 was 16 µM (inactive).

**Q.** What does the source list for O=[N+]([O-])c1c(Br)cc(Br)c2c1Nc1c(ccc(Cl)c1Cl)S2?
**A.** GI50 (CAKI-1): 16.5 µM (inactive); GI50 (HCC 2998): 12.4 µM (inactive); GI50 (786-0): 9.18 µM (inactive); GI50 (OVCAR-8): 2.79 µM (inactive); GI50 (PC-3): 17.7 µM (inactive); GI50 (U-251): 17.9 µM (inactive); GI50 (OVCAR-4): 13.9 µM (inactive); GI50 (NCI-H522): 6.53 µM (inactive); GI50 (SK-MEL-2): 18.5 µM (inactive); GI50 (DU-145): 14.1 µM (inactive); GI50 (EKVX): 16.6 µM (inactive); GI50 (HCT-15): 16.9 µM; GI50 (K562): 3.45 µM (inactive); GI50 (NCI/ADR-RES): 29.5 µM (inactive); GI50 (A498): 21.1 µM (inactive); GI50 (SK-OV-3): 19.6 µM (inactive); GI50 (RPMI-8226): 14.4 µM (inactive); GI50 (LOX IMVI): 2.34 µM (inactive); GI50 (TK-10): 22.5 µM (inactive); GI50 (UO-31): 7.91 µM (inactive)

**Q.** Which results are given for CCOC(=O)C1=C(C)C(C(=O)OC)/C(=C/c2cccc3cccnc23)C1=O (stereo not given)?
**A.** GI50 (CAKI-1): > 10 µM (inactive); GI50 (HCC 2998): > 10 µM (inactive); GI50 (786-0): > 10 µM (inactive); GI50 (OVCAR-8): > 10 µM (inactive); GI50 (PC-3): > 10 µM (inactive); GI50 (U-251): > 10 µM (inactive); GI50 (OVCAR-4): > 10 µM (inactive); GI50 (NCI-H522): > 10 µM (inactive); GI50 (SK-MEL-2): > 10 µM (inactive); GI50 (DU-145): > 10 µM (inactive); GI50 (EKVX): > 10 µM (inactive); GI50 (HCT-15): > 10 µM; GI50 (K562): > 10 µM (inactive); GI50 (NCI/ADR-RES): > 10 µM (inactive); GI50 (A498): > 10 µM (inactive); GI50 (SK-OV-3): > 10 µM (inactive); GI50 (RPMI-8226): > 10 µM (inactive); GI50 (LOX IMVI): > 10 µM (inactive); GI50 (TK-10): > 10 µM (inactive); GI50 (UO-31): > 10 µM (inactive)

**Q.** c1ccc(C/C(=N\Nc2nc3ccccc3o2)c2ccccn2)cc1 was tested. Which GI50 (CAKI-1) did it give?
**A.** Its GI50 is 0.0879 µM (active).

**Q.** And the GI50 (HCC 2998)?
**A.** Its GI50 is < 0.0163 µM (active).

**Q.** What about the GI50 (786-0) of the same compound?
**A.** The GI50 was < 0.0193 µM (active).

**Q.** And the GI50 (OVCAR-8)?
**A.** Its GI50 is 0.0321 µM (active).

**Q.** What about the GI50 (PC-3) of the same compound?
**A.** The GI50 was < 0.01 µM (active).

**Q.** What about the GI50 (U-251) of the same compound?
**A.** Its GI50 is 0.198 µM (active).

**Q.** And the GI50 (OVCAR-4)?
**A.** The GI50 was < 0.01 µM (active).

**Q.** What about the GI50 (NCI-H522) of the same compound?
**A.** The GI50 was 0.191 µM (active).

**Q.** What about the GI50 (SK-MEL-2) of the same compound?
**A.** The GI50 was 0.929 µM (active).

**Q.** What about the GI50 (DU-145) of the same compound?
**A.** Its GI50 is 0.376 µM (active).

**Q.** What about the GI50 (EKVX) of the same compound?
**A.** Its GI50 is < 0.01 µM (active).

**Q.** What about the GI50 (HCT-15) of the same compound?
**A.** Its GI50 is 0.0252 µM.

**Q.** What about the GI50 (K562) of the same compound?
**A.** The GI50 was 0.027 µM (active).

**Q.** What about the GI50 (NCI/ADR-RES) of the same compound?
**A.** Its GI50 is 0.0246 µM (active).

**Q.** And the GI50 (A498)?
**A.** The GI50 was 0.369 µM (active).

**Q.** And the GI50 (SK-OV-3)?
**A.** The GI50 was 0.0237 µM (active).

**Q.** What about the GI50 (RPMI-8226) of the same compound?
**A.** Its GI50 is 0.0482 µM (active).

**Q.** And the GI50 (LOX IMVI)?
**A.** Its GI50 is 0.185 µM (active).

**Q.** And the GI50 (TK-10)?
**A.** Its GI50 is 0.0668 µM (active).

**Q.** And the GI50 (UO-31)?
**A.** The GI50 was 0.09 µM (active).

**Q.** For CCC(C)C(NC(=O)CNC(=O)C(Cc1ccccc1)NC(=O)C1CCCN1C(=O)c1ccc(-c2ccc(Cl)cc2Cl)o1)C(=O)OC (stereo not given) (X33-PFGI-OMe; configuration not given here), which GI50 (CAKI-1) is on record?
**A.** The GI50 was 31 µM (inactive).

**Q.** What about the GI50 (HCC 2998) of the same compound?
**A.** Its GI50 is 21.3 µM (inactive).

**Q.** What about the GI50 (786-0) of the same compound?
**A.** Its GI50 is 27.1 µM (inactive).

**Q.** What about the GI50 (OVCAR-8) of the same compound?
**A.** Its GI50 is 27.4 µM (inactive).

**Q.** And the GI50 (PC-3)?
**A.** Its GI50 is 8 µM (inactive).

**Q.** And the GI50 (U-251)?
**A.** Its GI50 is 24.5 µM (inactive).

**Q.** What about the GI50 (OVCAR-4) of the same compound?
**A.** Its GI50 is 28.6 µM (inactive).

**Q.** And the GI50 (NCI-H522)?
**A.** Its GI50 is 29.8 µM (inactive).

**Q.** What about the GI50 (SK-MEL-2) of the same compound?
**A.** The GI50 was 60.5 µM (inactive).

**Q.** And the GI50 (DU-145)?
**A.** The GI50 was 39.5 µM (inactive).

**Q.** And the GI50 (EKVX)?
**A.** Its GI50 is 24.1 µM (inactive).

**Q.** And the GI50 (HCT-15)?
**A.** Its GI50 is 43.1 µM.

**Q.** And the GI50 (K562)?
**A.** Its GI50 is 22 µM (inactive).

**Q.** And the GI50 (NCI/ADR-RES)?
**A.** The GI50 was 36.7 µM (inactive).

**Q.** What about the GI50 (A498) of the same compound?
**A.** The GI50 was 7.4 µM (inactive).

**Q.** And the GI50 (SK-OV-3)?
**A.** Its GI50 is 89.5 µM (inactive).

**Q.** And the GI50 (RPMI-8226)?
**A.** The GI50 was 14.7 µM (inactive).

**Q.** And the GI50 (LOX IMVI)?
**A.** The GI50 was 33.3 µM (inactive).

**Q.** And the GI50 (TK-10)?
**A.** Its GI50 is 51.9 µM (inactive).

**Q.** And the GI50 (UO-31)?
**A.** The GI50 was 36.8 µM (inactive).
